The values below are quoted from earlier work in patent publication US20250241301A1, “COMPOSITIONS AND METHODS FOR INHIBITING PATHOGEN GROWTH ON PLANTS AND IMPROVING CROP SAFETY” (priority 2024, published 2025).

This data set has as its system potatoes. Particulars: T2H applied alone; cited from earlier work.

Structures are written as SMILES.

As to `CCC/C=C/C=O` [T2H, trans-2-hexenal], the “skin pitting/lesion damage to potatoes” value is listed as “skin pitting/lesion damage”.
